Drawing on paper PMC9105386, “Development and Characterization of Indole-Responsive Whole-Cell Biosensor Based on the Inducible Gene Expression System from Pseudomonas putida KT2440” (International Journal of Molecular Sciences, 2022), this text covers EC50 for one compound.

Molecules are shown by their SMILES.

The target of this test is T1, TrpI (PpTrpI/PPP_RS00425 inducible system) (Pseudomonas putida, UniProt Q88RP5).
T1 sequence (Q88RP5 1-298): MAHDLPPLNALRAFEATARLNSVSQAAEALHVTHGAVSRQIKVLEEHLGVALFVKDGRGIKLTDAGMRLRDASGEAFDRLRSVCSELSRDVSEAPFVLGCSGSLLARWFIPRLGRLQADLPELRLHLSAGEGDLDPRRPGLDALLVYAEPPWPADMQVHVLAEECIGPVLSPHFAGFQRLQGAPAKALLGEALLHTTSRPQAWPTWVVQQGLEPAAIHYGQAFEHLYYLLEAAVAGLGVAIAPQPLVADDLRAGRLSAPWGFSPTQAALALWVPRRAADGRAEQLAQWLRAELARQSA
The test can be described thus: RFP reporter induction in whole cells, Hill fit. It counts as cell-based. As to conditions: read-out: Km. From the text:
RFP reporter induction in whole cells, Hill fit on TrpI (PpTrpI/PPP_RS00425 inducible system)

`c1ccc2[nH]ccc2c1` [compound 1, indole]: the EC50 came to 1.35 mM.
